# Measured values reported in patent US11229654B2, “Combination therapy of tetracyclic quinolone analogs for treating cancer” (Senhwa Biosciences, Inc., priority 2015, dated 2022).
# Like-named read-outs stand apart in the source and are kept apart here.
# Tests used:
# Toledo cell = assay: Anti-proliferation assay (MTS), Toledo cells; type: cell-based, human; conditions: for IC50 / Estimated IC25: single drug treatment, 96 hours post-treatment; for IC50: read-out: Estimated IC50
# Protocol: (§1) Three human Lymphoma cell lines Toledo, MC116 and HT were purchased from the Bioresource Collection and Research Center (BCRC, Taiwan). All cells were incubated in a humidified atmosphere containing 5% C02 at 37° C.
# (§2) CAL-101, also known as Idelalisib, is a PI3K-delta inhibitor with potential immunomodulating and antineoplastic activities. Anticancer activity of the combination of Compound A and CAL-101 on three human Lymphoma cell lines (Toledo, MC116, HT) was assessed using in vitro cell proliferation assay. Cell proliferation of drug-treated human cancer cells was determined at 96 hours post-treatment using the MTS (Promega) colorimetric assay.
# (§3) Corrected absorbance values were obtained by subtracting the average 490 nm absorbance of the control wells (medium only, no cell) from all other absorbance values. Percentage inhibition of cell growth for compound treatment was calculated using this formula: […]
# (§4) The sigmoidal dose-response curve is generated by fitting the percentage inhibition value as a function of logarithm of compound concentrations using GraphPad Prism software. IC50 values are defined as the concentration needed for a 50% inhibition of cell growth. […] All data represent the results of triplicate experiments.
# (§5) Estimated IC50 and IC25 values were calculated based on non-linear regression of the dose-response curves of the cell proliferation ratio (%) as a function of logarithm of drug concentrations in single treatments.
# MC116 cell = assay: Anti-proliferation assay (MTS), MC116 cells; type: cell-based, human
# Protocol: as §1, §2, §3, §4, §5
# HT cell = assay: Anti-proliferation assay (MTS), HT cells; type: cell-based, human
# Protocol: as §1, §2, §3, §4, §5
# [1] = system: BRCA1 negative (UWB1.289-2945) human ovarian cancer cell line; assay: CellTiter-Glo cell viability assay, BRCA1 negative ovarian cancer cells; type: cell-based; conditions: for Cell toxicity of cytokine by itself: 0-5 ng/mL, BRCA1 negative ovarian cancer cell line; for Effect on cell toxicity in the presence of Compound A: cytokine 0-5 ng/mL together with Compound A
# Protocol: (§6) BRCA1 negative (UWB1.289-2945) and BRCA1 positive (UWB1.289) human ovarian cancer cell lines were purchased from the American Type Culture Collection (ATCC). Those cell were incubated in a humidified atmosphere containing 5% C02 at 37° C.
# (§7) The anticancer activity of Compound A on BRCA1 negative and BRCA1 positive human ovarian cancer cell lines were also assessed using in vitro cell proliferation assay. Cell proliferation of drug-treated human cancer cell was determined at 72 hours post-treatment using the CellTiter-Glo® Luminescent cell viability assay (Promega). IC50 values are defined as the concentration needed for a 50% inhibition of cell growth and were calculated in GraphPad. The anti-proliferative effects of Compound A alone and in combination with cytokines on these two cell lines are shown in FIGS. 4-6.
# (§8) Percentage inhibition of cell growth for compound treatment was calculated using this formula: […]
# (§9) The data were processed using built-in excel-macro. Cell viability/proliferation was expressed as […] with respect to the average signal from the untreated control wells of the respective plate. Out-liar values (of the triplicate) were rejected during QC. The processed data were plotted using Graphpad software. Statistical analysis was done using Excel (Microsoft) and Pair-wise comparison of two groups was made using the student's t test. All data represent the results of triplicate experiments.
# (§10) Here, two types of cytokines, TNF-α and IFN-γ, were used (0, 0.008, 0.04, 0.2, 1, 5 ng/mL) in response to together with Compound A.
# [2] = system: BRCA1 positive (UWB1.289) human ovarian cancer cell line; assay: CellTiter-Glo cell viability assay, BRCA1 positive ovarian cancer cells; type: cell-based; conditions: for Cell toxicity of cytokine by itself: 0-5 ng/mL, BRCA1 positive ovarian cancer cell line
# Protocol: as §6, §7, §8, §9, §10
# [3] = system: HBCx-39 (BRCA2 wild type) cancer cell line; assay: Chemokine expression in BRCA2 wild type cancer cells; type: cell-based
# Text: (§11) FIG. 8A-8C show effects of Compound A treatment on chemokine expressions in BRCA2 wild type (WT) and mutant (Mut) PDX-derived breast cancer cells.
# (§12) Compound A was applied to both HBCx-39 (BRCA2 wild type) and HBCx-17 (BRCA2 mutant) cancer cell lines in vitro. HBCx-17 is a homologous recombination deficiency tumor cell line having BRCA2 mutation. […] CCL21 and CXCL9 mRNA expression in cancer cells having BRCA2 mutant compared to wild type cancer cells.
# [4] = system: HBCx-17 (BRCA2 mutant) cancer cell line; assay: Chemokine expression in BRCA2 mutant cancer cells; type: cell-based
# Text: as §11, §12
# [5] = Homo sapiens, single drug treatment, 96 hours post-treatment, read-out: Estimated IC50
# [6] = Homo sapiens, single treatment, read-out: IC50
# [7] = single drug treatment, 96 hours post-treatment
Compound,IC50 (Toledo cell; Homo sapiens),Estimated IC25 (Toledo cell),IC50 (MC116 cell; [5]),Estimated IC25 (MC116 cell; [7]),IC50 (HT cell; [5]),Estimated IC25 (HT cell; [7]),Cell toxicity of cytokine by itself [1],Effect on cell toxicity in the presence of Compound A ([1]; BRCA1 negative cells),Cell toxicity of cytokine by itself [2],other results
CC[C@H](Nc1ncnc2[nH]cnc12)c1nc2cccc(F)c2c(=O)n1-c1ccccc1 [CAL-101],76 nM,25.3 ± 14.9 nM,118000 ± 29600 nM,39286.7 ± 9871.2 nM,10100 ± 1380 nM,3357.3 ± 461.0 nM,,,,"inhibition at 0.4 µM (Toledo cell; Homo sapiens, IC50 conc. used: Compound A 50 nM, CAL-101 400 nM): 49.6 ± 1.7%; inhibition at 17.5 µM (MC116 cell; Homo sapiens, IC25 conc. used: Compound A 150 nM, CAL-101 17500 nM): 9.2 ± 3.4%; inhibition at 35 µM (MC116 cell; Homo sapiens, IC50 conc. used: Compound A 450 nM, CAL-101 35000 nM): 70.4 ± 3.1%; IC50 (MC116 cell; [6]): > 10000 nM; inhibition at 2.6667 µM (HT cell; Homo sapiens, IC25 conc. used: Compound A 133.3 nM, CAL-101 2666.7 nM): 19.7 ± 4.3%; inhibition at 8 µM (HT cell; Homo sapiens, IC50 conc. used: Compound A 400 nM, CAL-101 8000 nM): 37.6 ± 1.5%; IC50 (HT cell; [6]): > 10000 nM"
"Cc1cnc(CNC(=O)c2c(=O)c3ccc(N4CCCN(C)CC4)nc3n3c2sc2ccccc23)cn1 [Compound A, 2-(4-Methyl-[1,4]diazepan-1-yl)-5-oxo-5H-7-thia-1,11b-diaza-benzo[c]fluorene-6-carboxylic acid (5-methyl-pyrazin-2-ylmethyl)-amide]",45.9 nM,15.3 ± 0.8 nM,723 nM,241.0 ± 6.5 nM,526 nM,175.1 ± 6.6 nM,,,,"Inhibition (%) (Toledo cell; IC50 conc. used: Compound A 50 nM, CAL-101 400 nM): 25.6 ± 2.5%; Inhibition (%) (MC116 cell; IC25 conc. used: Compound A 150 nM, CAL-101 17500 nM): 44.3 ± 5.5%; Inhibition (%) (MC116 cell; IC50 conc. used: Compound A 450 nM, CAL-101 35000 nM): 83.4 ± 1.2%; Inhibition (%) (HT cell; IC25 conc. used: Compound A 133.3 nM, CAL-101 2666.7 nM): 15.2 ± 0.9%; Inhibition (%) (HT cell; IC50 conc. used: Compound A 400 nM, CAL-101 8000 nM): 41.2 ± 1.9%; IC50 ([1]; Homo sapiens, BRCA1 negative cells, 72 hours post-treatment): 2.34 to 3.78 nM; Maximum toxicity ([2]; BRCA1 positive UWB1.289, highest concentration (100 nM), 72 hours): ≤ 40%; Production of chemokines in tumor cells [3]: capable of inducing the production of several important chemokines; CCL9, CCL21 and CXCL9 mRNA expression ([4]; BRCA2 mutant compared to wild type cancer cells): increased more; Production of chemokines in tumor cells ([4]; HBCx-17 BRCA2 mutant): capable of inducing the production of several important chemokines"
"IFN-γ: cytokine, Interferon gamma",,,,,,,"minimal, but increasing trend of cell toxicity with increasing dose",additive effect,"minimal, but increasing trend of cell toxicity with increasing dose",
TNF-α,,,,,,,"minimal, but increasing trend of cell toxicity with increasing dose",additive effect,"minimal, but increasing trend of cell toxicity with increasing dose",
